According to patent publication US5827846A, “Carbazole derivatives as agents against multi-drug resistance” (Novartis Corp., priority 1994, dated 1998):

Key:
[1] = tested on: KB-8511 (drug-resistant, P-glycoprotein [Pgp] overexpressing) cells; experiment: Inhibition of cell growth of drug-resistant KB-8511 cells (methylene blue staining, 4 days); type: cell-based, Human; conditions: 5760 min
Protocol: The KB-8511 cells are kept as stock in the presence of 10 ng/ml of the antineoplastically active substance Colcemid (demecolcine). […] The plates are then incubated under the conditions mentioned above for 4 days. […] After washing, the dye is eluted with 3% (w/v) aqueous hydrochloric acid. The optical density (OD) per well, which is directly proportional to the number of cells, is then measured with a photometer at 665 nm. The IC50 values are calculated by means of a computer system, using the formula

[2] = tested on: human parental drug-sensitive KB-31 tumours; experiment: In vivo antitumour activity against drug-sensitive KB-31 tumours in nude mice; design: species or system female Balb/c nude mice; conditions: KB-31 tumour
Protocol: (§1) The determination of the in vivo antitumour activity of test substance B (=N-benzoyl-6-benzyl-staurosporin) against the drug-sensitive parental KB-31 and a multidrug-resistant variant of the KB-31, i.e. the multidrug-resistant variant KB-8511, tumours is carried out in female Balb/c nude mice (Bomholdgaard, Copenhagen, Denmark) bearing serially passaged (minimum of three consecutive transplantations) either the human parental drug-sensitive KB-31 tumours or the human KB-8511 tumours. The KB-8511 tumours overexpress Pgb, the product of the mdr-1 gene (S. Akiyma et al., "Isolation and genetic characterization of human KB cell lines resistant to multiple drug", Somatic Cell and Mol. Gen. 11, 117-126 [1985]). Tumour fragments of approximately 25 mg are transplanted into the left flank of each animal (n=6 per group). […] Tumour growth is monitored twice weekly by measuring perpendicular diameters. Tumour volumes are determined as described by T. Meyer et al., Int. J. Cancer 43, 851-856 (1989), and expressed as relative tumour size (i.e. the increase in tumour volume compared with the tumour volume at the start of the treatment).

human KB-8511 tumours = experiment: In vivo antitumour activity against multidrug-resistant KB-8511 tumours in nude mice; design: species or system female Balb/c nude mice; conditions: for T/C [%] (median tumour volumes treated versus control): KB-8511 tumour
Protocol: as §1

For `CC[C@]1(O)C[C@@H]2CN(CCc3c([nH]c4ccccc34)[C@@](C(=O)OC)(c3cc4c(cc3OC)N(C)[C@H]3[C@@](O)(C(=O)OC)[C@H](OC(C)=O)[C@]5(CC)C=CCN6CC[C@]43[C@@H]65)C2)C1` [A, vinblastine], the “% growth of KB 8511 cells” value ([1]; A 2.34 ng/ml alone) was 101%, the “% growth of KB 8511 cells” value ([1]; A 4.69 ng/ml alone) was 101% and the “% growth of KB 8511 cells” value ([1]; A 9.38 ng/ml alone) was 98%. The “% growth of KB 8511 cells” value ([1]; A 18.8 ng/ml alone) was 98%, the “% growth of KB 8511 cells” value ([1]; A 37.5 ng/ml alone) was 98% and the “% growth of KB 8511 cells” value ([1]; A 75.0 ng/ml alone) was 90%. For the same compound, the “% growth of KB 8511 cells” value ([1]; A 150 ng/ml alone) was 66% and the “% growth of KB 8511 cells” value ([1]; A 300 ng/ml alone) was 14%.
`CO[C@@H]1[C@H](N(C)C(=O)c2ccccc2)C[C@H]2O[C@]1(C)n1c3ccccc3c3c4c(c5c6ccccc6n2c5c31)C(=O)N(Cc1ccccc1)C4` [B, N-benzoyl-6-benzyl-staurosporin] was tested, and the “% growth of KB 8511 cells” value ([1]; B 0.1 μmol alone) was 92%, the “% growth of KB 8511 cells” value ([1]; B 1 μmol alone (Example 10)) was 95% and the “% growth of KB 8511 cells” value ([1]; B 1 μmol alone (Example 11)) was 82%. For the same compound, the “T/C [%] (median tumour volumes treated versus control)” value ([2]; 1 × 25 mg/kg p.o.) was 91%, the “Sensitisation of KB-8511 tumours to adriamycin” value (human KB-8511 tumours; 25 mg/kg p.o. 4 hours prior to adriamycin 9.0 mg/kg i.v.) was “sensitises the multi-drug resistant KB-8511 tumours to adriamycin” and the “T/C [%] (median tumour volumes treated versus control)” value (human KB-8511 tumours; 1 × 25 mg/kg p.o.) was 93%.
For `COc1cccc2c1C(=O)c1c(O)c3c(c(O)c1C2=O)C[C@@](O)(C(=O)CO)C[C@@H]3O[C@H]1C[C@H](N)[C@H](O)[C@H](C)O1` [C, adriamycin], the “T/C [%] (median tumour volumes treated versus control)” value ([2]; 1 × 9 mg/kg i.v.) was 13%, the Maximal tumour regression ([2]; adriamycin 1×9 mg/kg i.v. alone, on day 5) was 24% and the “T/C [%] (median tumour volumes treated versus control)” value (human KB-8511 tumours; 1 × 9 mg/kg i.v.) was 89%.
